Data taken from patent US20240145031A1, “Methods and devices for drug repositioning and drug repurposing as nuclear receptor modulators” (Precision Medicine Lab, priority 2022, published 2024).

Experiments:
[1] = target: T1, glucocorticoid receptor recombinant human protein, ligand binding domain (LBD) (Homo sapiens, UniProt P04150); experiment: nuclear receptor cofactor recruitment peptide array (70 coregulator peptides), ligand induced cofactor peptide interaction profiling; type: biochemical; conditions: example 3, weight factors of table 7
T1 construct: purchased Thermo Fisher Scientific A15668
T1 sequence (P04150 524-758 limits assumed): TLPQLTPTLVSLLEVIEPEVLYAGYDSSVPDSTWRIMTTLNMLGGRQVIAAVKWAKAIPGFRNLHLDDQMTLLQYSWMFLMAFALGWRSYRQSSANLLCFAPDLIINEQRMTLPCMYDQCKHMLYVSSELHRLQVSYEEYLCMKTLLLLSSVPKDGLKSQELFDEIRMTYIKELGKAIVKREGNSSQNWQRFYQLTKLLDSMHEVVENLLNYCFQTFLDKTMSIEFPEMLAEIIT

[2] = target: T1, glucocorticoid receptor recombinant human protein, ligand binding domain (LBD); experiment: as above; type: biochemical; conditions: for weighted log fold change: example 3, weight factors of table 7
Experimental: Interactions between the glucocorticoid receptor ligand binding domain and the selected drugs for repurposing and coregulator peptides were determined using the method as described by Zalachoras et al 2013^xxvii Each peptide array consisting of 70 coregulator peptides as described in table 1 were incubated with a reaction mixture of 1 nM purified glucocorticoid receptor recombinant human protein, ligand binding domain (LBD), (Thermo Fisher Scientific, cat #A15668), ALEXA488-conjugated anti-GST antibody and buffer F (PV4689, A-11131, and PV4547; Invitrogen). […] For ligand induced cofactor peptide interaction profiling the set of repurposing drugs were tested at a concentration of 0.05 mM compared to solvent (2% DMSO in water). Incubation was performed at 20° C. on the cofactor peptide array. Glucocorticoid receptor binding to each peptide on the array, reflected by fluorescent signal, was quantified by image analysis using R-based software (Precision Medicine Lab). The 70 coregulator peptides used represent a range of coregulator nuclear receptor-boxes known to interact with the glucocorticoid receptor and other nuclear receptors. The binding profiles were generated for glucocorticoid receptor-LBD treated with the repurposing drugs vs cortisol.
The R2 is calculated using the data for each of the 70 cofactor peptides using the same weight.
In this example a weight factor was applied on the log fold change data of example 1 to determine the similarities between the tested repositioning drugs versus cortisol using the coefficient of determination, R2, between the weighted log fold change data of the tested repurposing drug to the positive control, cortisol. […] In this example 14 cofactor peptides were used (table 3).

For `C[C@]12CCC(=O)C=C1CC[C@@H]1[C@@H]2[C@@H](O)C[C@@]2(C)[C@H]1CC[C@]2(O)C(=O)CO` [PC, Cortisol], the “weighted log fold change” value ([1]; peptide 22 NCOA1_1421_1441) was 1.715, the “weighted log fold change” value ([1]; peptide 31 NCOA3_726_747) was 0.515 and the “weighted log fold change” value ([1]; peptide 39 NR0B2_107_128) was 0.769. The “weighted log fold change” value ([1]; peptide 42 NRIP1_369_390) was 0.128, the “weighted log fold change” value ([1]; peptide 45 NRIP1_810_831) was 0.057 and the “binding to coregulator peptide no 22 NCOA1_1421_1444 compared to the negative control (NC), DMSO” value ([2]; FIG. 2, 0.05 mM) was “increased binding”. The “weighted log fold change” value ([2]; peptide 24 NCOA1_738_759) was 0.168, the “weighted log fold change” value ([2]; peptide 26 NCOA2_679_700) was 0.056 and the “weighted log fold change” value ([2]; peptide 27 NCOA2_734_755) was 0.366. For the same compound, the “weighted log fold change” value ([2]; peptide 52 PELP1_21_42) was 0.028, the “weighted log fold change” value ([2]; peptide 58 PRGC1_134_154) was 0.835 and the “weighted log fold change” value ([2]; peptide 59 PRGC2_146_166) was 0.113. For the same compound, the “weighted log fold change” value ([2]; peptide 63 TIF1A_748_769) was 0.058, the “weighted log fold change” value ([2]; peptide 68 UBE3A_650_671) was 0.357 and the “weighted log fold change” value ([2]; peptide 70 ZNHI3_90_111) was 0.025. For the same compound, the log fold change ([2]; example 4, weight factor of 1, peptide 11 IKBB_278_299) was 0.611, the log fold change ([2]; example 4, weight factor of 1, peptide 27 NCOA2_734_755) was 1.465 and the log fold change ([2]; example 4, weight factor of 1, peptide 59 PRGC2_146_166) was 0.902. It also gave a log fold change ([2]; example 4, weight factor of 1, peptide 68 UBE3A_650_671) of 1.430, a log fold change ([2]; peptide 1 ANDR_11_32, 0.05 mM vs solvent (2% DMSO)) of 0.549 and a log fold change ([2]; peptide 2 CBP_2056_2077, 0.05 mM vs solvent (2% DMSO)) of 0.473. It also gave a log fold change ([2]; peptide 3 CENPR_159_177, 0.05 mM vs solvent (2% DMSO)) of 0.669, a log fold change ([2]; peptide 4 CHD9_1024_1045, 0.05 mM vs solvent (2% DMSO)) of 0.375 and a log fold change ([2]; peptide 5 CNOT1_141_162, 0.05 mM vs solvent (2% DMSO)) of 0.446. For the same compound, the log fold change ([2]; peptide 6 CNOT1_558_579, 0.05 mM vs solvent (2% DMSO)) was 0.386, the log fold change ([2]; peptide 7 DHX30_49_70, 0.05 mM vs solvent (2% DMSO)) was 0.446 and the log fold change ([2]; peptide 8 EP300_2040_2061, 0.05 mM vs solvent (2% DMSO)) was 0.383. For the same compound, the log fold change ([2]; peptide 9 EP300_70_91, 0.05 mM vs solvent (2% DMSO)) was 0.813, the log fold change ([2]; peptide 11 IKBB_278_299, 0.05 mM vs solvent (2% DMSO)) was 0.611 and the log fold change ([2]; peptide 13 KMT2D_2674_2695, 0.05 mM vs solvent (2% DMSO)) was 0.589. For the same compound, the log fold change ([2]; peptide 14 LCOR_41_62, 0.05 mM vs solvent (2% DMSO)) was 1.238, the log fold change ([2]; peptide 15 MAPE_250_271, 0.05 mM vs solvent (2% DMSO)) was 0.090 and the log fold change ([2]; peptide 16 MAPE_301_322, 0.05 mM vs solvent (2% DMSO)) was −0.294. For the same compound, the log fold change ([2]; peptide 17 MED1_593_614, 0.05 mM vs solvent (2% DMSO)) was 0.949, the log fold change ([2]; peptide 18 MEN1_256_277, 0.05 mM vs solvent (2% DMSO)) was 0.192 and the log fold change ([2]; peptide 19 MGMT_87_108, 0.05 mM vs solvent (2% DMSO)) was 0.250. The log fold change ([2]; peptide 20 MLL2_4176_4197, 0.05 mM vs solvent (2% DMSO)) was 0.650, the log fold change ([2]; peptide 21 MLL2_4703_4724, 0.05 mM vs solvent (2% DMSO)) was 0.531 and the log fold change ([2]; peptide 22 NCOA1_1421_1441, 0.05 mM vs solvent (2% DMSO)) was 1.715. For the same compound, the log fold change ([2]; peptide 23 NCOA1_679_700, 0.05 mM vs solvent (2% DMSO)) was 1.097, the log fold change ([2]; peptide 24 NCOA1_738_759, 0.05 mM vs solvent (2% DMSO)) was 1.340 and the log fold change ([2]; peptide 25 NCOA2_630_651, 0.05 mM vs solvent (2% DMSO)) was 1.253. It also gave a log fold change ([2]; peptide 26 NCOA2_679_700, 0.05 mM vs solvent (2% DMSO)) of 1.777, a log fold change ([2]; peptide 27 NCOA2_734_755, 0.05 mM vs solvent (2% DMSO)) of 1.465 and a log fold change ([2]; peptide 28 NCOA2_867_888, 0.05 mM vs solvent (2% DMSO)) of 0.263. The log fold change ([2]; peptide 29 NCOA3_610_631, 0.05 mM vs solvent (2% DMSO)) was 1.176, the log fold change ([2]; peptide 30 NCOA3_674_695, 0.05 mM vs solvent (2% DMSO)) was 0.197 and the log fold change ([2]; peptide 31 NCOA3_726_747, 0.05 mM vs solvent (2% DMSO)) was 1.029. The log fold change ([2]; peptide 32 NCOA4_316_337, 0.05 mM vs solvent (2% DMSO)) was 0.839, the log fold change ([2]; peptide 34 NCOR1_1925_1946, 0.05 mM vs solvent (2% DMSO)) was 0.398 and the log fold change ([2]; peptide 35 NCOR1_2040_2061, 0.05 mM vs solvent (2% DMSO)) was 0.391. For the same compound, the log fold change ([2]; peptide 36 NELFB_329_350, 0.05 mM vs solvent (2% DMSO)) was 0.195, the log fold change ([2]; peptide 38 NR0B1_2_23, 0.05 mM vs solvent (2% DMSO)) was 0.415 and the log fold change ([2]; peptide 39 NR0B2_107_128, 0.05 mM vs solvent (2% DMSO)) was 1.538. It also gave a log fold change ([2]; peptide 41 NRIP1_174_195, 0.05 mM vs solvent (2% DMSO)) of 0.213, a log fold change ([2]; peptide 42 NRIP1_369_390, 0.05 mM vs solvent (2% DMSO)) of 1.027 and a log fold change ([2]; peptide 43 NRIP1_489_510, 0.05 mM vs solvent (2% DMSO)) of 0.954. For the same compound, the log fold change ([2]; peptide 44 NRIP1_701_722, 0.05 mM vs solvent (2% DMSO)) was 0.609, the log fold change ([2]; peptide 45 NRIP1_810_831, 0.05 mM vs solvent (2% DMSO)) was 0.909 and the log fold change ([2]; peptide 46 NRIP1_925_946, 0.05 mM vs solvent (2% DMSO)) was 0.970. The log fold change ([2]; peptide 47 NSD1_895_916, 0.05 mM vs solvent (2% DMSO)) was 0.886, the log fold change ([2]; peptide 48 PAGR1_103_124, 0.05 mM vs solvent (2% DMSO)) was 1.057 and the log fold change ([2]; peptide 49 PAK6_249_270, 0.05 mM vs solvent (2% DMSO)) was 0.362. The log fold change ([2]; peptide 50 PCAF_179_200, 0.05 mM vs solvent (2% DMSO)) was 0.771, the log fold change ([2]; peptide 51 PELP1_169_190, 0.05 mM vs solvent (2% DMSO)) was 0.496 and the log fold change ([2]; peptide 52 PELP1_21_42, 0.05 mM vs solvent (2% DMSO)) was 0.888. For the same compound, the log fold change ([2]; peptide 53 PELP1_447_468, 0.05 mM vs solvent (2% DMSO)) was 0.771, the log fold change ([2]; peptide 54 PIAS2_7_28, 0.05 mM vs solvent (2% DMSO)) was 0.383 and the log fold change ([2]; peptide 55 PNRC1_306_327, 0.05 mM vs solvent (2% DMSO)) was 0.568. The log fold change ([2]; peptide 56 PPRC1_152_173, 0.05 mM vs solvent (2% DMSO)) was 0.380, the log fold change ([2]; peptide 57 PR285_1106_1127, 0.05 mM vs solvent (2% DMSO)) was 1.167 and the log fold change ([2]; peptide 58 PRGC1_134_154, 0.05 mM vs solvent (2% DMSO)) was 1.669. It also gave a log fold change ([2]; peptide 59 PRGC2_146_166, 0.05 mM vs solvent (2% DMSO)) of 0.902, a log fold change ([2]; peptide 60 PRGC2_338_358, 0.05 mM vs solvent (2% DMSO)) of 1.230 and a log fold change ([2]; peptide 61 PROX1_58_79, 0.05 mM vs solvent (2% DMSO)) of 0.547. The log fold change ([2]; peptide 62 RAD9A_349_370, 0.05 mM vs solvent (2% DMSO)) was 0.503, the log fold change ([2]; peptide 63 TIF1A_748_769, 0.05 mM vs solvent (2% DMSO)) was 0.930 and the log fold change ([2]; peptide 64 TIP60_477_498, 0.05 mM vs solvent (2% DMSO)) was 0.672. It also gave a log fold change ([2]; peptide 65 TREF1_169_190, 0.05 mM vs solvent (2% DMSO)) of 0.886, a log fold change ([2]; peptide 66 TRRAP_972_993, 0.05 mM vs solvent (2% DMSO)) of 1.371 and a log fold change ([2]; peptide 67 TRXR1_133_154, 0.05 mM vs solvent (2% DMSO)) of 0.623. It also gave a log fold change ([2]; peptide 68 UBE3A_650_671, 0.05 mM vs solvent (2% DMSO)) of 1.430, a log fold change ([2]; peptide 69 WIPI1_120_141, 0.05 mM vs solvent (2% DMSO)) of 1.049 and a log fold change ([2]; peptide 70 ZNHI3_90_111, 0.05 mM vs solvent (2% DMSO)) of 0.814.
